{"source": "patent US20060148683A1", "about": "“Detection and treatment of intravascular lesions” (priority 2001, published 2006)", "target": "T1, DD(E) fragment of fibrin (Homo sapiens, UniProt P02671+P02675+P02679, DEL433-453)", "T1 construct": "complex of the crosslinked D domains of adjacent fibrin monomers with the central E domain of fibrin", "T1 sequence (P02671 130-216 limits assumed, stated change not applied)": "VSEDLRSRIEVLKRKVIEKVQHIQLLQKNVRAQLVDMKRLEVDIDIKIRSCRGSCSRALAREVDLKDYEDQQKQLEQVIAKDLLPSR", "T1 sequence (P02671 36-97 limits assumed, stated change not applied)": "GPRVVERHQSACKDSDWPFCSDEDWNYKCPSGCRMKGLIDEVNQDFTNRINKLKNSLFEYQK", "T1 sequence (P02675 164-491 limits assumed, stated change not applied)": "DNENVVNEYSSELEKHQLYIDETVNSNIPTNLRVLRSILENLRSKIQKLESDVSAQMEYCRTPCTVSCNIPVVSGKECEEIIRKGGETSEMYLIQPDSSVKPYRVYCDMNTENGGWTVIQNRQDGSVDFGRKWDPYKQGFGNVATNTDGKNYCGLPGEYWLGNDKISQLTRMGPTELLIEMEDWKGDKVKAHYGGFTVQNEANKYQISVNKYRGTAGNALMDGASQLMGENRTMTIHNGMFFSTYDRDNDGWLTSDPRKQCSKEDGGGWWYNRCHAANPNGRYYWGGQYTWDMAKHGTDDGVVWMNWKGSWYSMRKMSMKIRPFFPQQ", "T1 sequence (P02675 45-152 limits assumed, stated change not applied)": "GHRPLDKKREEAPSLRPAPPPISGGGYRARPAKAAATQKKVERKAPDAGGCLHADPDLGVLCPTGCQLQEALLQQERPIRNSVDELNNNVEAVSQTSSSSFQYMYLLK", "T1 sequence (P02679 114-432 limits assumed, stated change not applied)": "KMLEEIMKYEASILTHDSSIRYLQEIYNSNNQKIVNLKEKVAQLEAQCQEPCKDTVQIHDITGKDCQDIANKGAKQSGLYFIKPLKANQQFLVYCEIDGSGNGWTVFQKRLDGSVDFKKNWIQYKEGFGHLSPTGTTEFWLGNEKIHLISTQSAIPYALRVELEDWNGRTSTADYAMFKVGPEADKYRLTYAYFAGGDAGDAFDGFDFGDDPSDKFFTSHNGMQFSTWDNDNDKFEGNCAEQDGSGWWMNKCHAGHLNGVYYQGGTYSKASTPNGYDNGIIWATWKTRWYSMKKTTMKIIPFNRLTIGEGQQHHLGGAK", "T1 sequence (P02679 27-88 limits assumed, stated change not applied)": "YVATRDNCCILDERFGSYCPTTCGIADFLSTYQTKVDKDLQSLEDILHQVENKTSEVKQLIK", "assay": "Dissociation constant (Kd) of optical agent for DD(E) fragment of fibrin", "assay_type": "binding", "description": "Optical agents of the invention include an OD and a FBM covalently bound to each other, either directly or via a linker (OD-L-FBM). The FBM can be a small molecule or a peptide. As used herein, the term “peptide” refers to a chain of amino acids that is about 2 to about 75 amino acids in length (e.g., 3 to 50 amino acids). Affinity of a peptide for fibrin can be expressed in terms of its dissociation constant (Kd), which is the equilibrium constant for the dissociation reaction of the peptide from the DD(E) fragment of fibrin. The term “DD(E) fragment of fibrin” refers to a fibrin subcomponent generated by proteolytic degradation of fibrin with plasmin or trypsin. The DD(E) fragment is a complex of the crosslinked D domains of adjacent fibrin monomers with the central E domain of fibrin (See, for example, Spraggon et al., Nature 389:455462 (1997)). Since DD(E) is a product resulting from the proteolysis of fibrin, one of skill in the art will understand that there may be some slight heterogeneity in its composition. The DD(E) fragment can be biotinylated and immobilized via avidin to a solid substrate (e.g., a multi-well plate). Peptides can be incubated with the immobilized DD(E) fragment in a suitable buffer and binding detected using known methodology. Methods for determining the dissociation constant of the peptide for DD(E) are set forth in WO 01/09188.\nAs a result of the FBM having affinity for fibrin, the optical agent also has affinity for fibrin. The term “affinity” refers to the capacity of the optical agent to be taken up by, retained by, or bound to the fibrin in the lesion. The affinity of an optical agent can be expressed in terms of its Kd, which is the equilibrium constant for the dissociation reaction of the optical agent from fibrin, and determined as discussed above for the peptide. The dissociation constant of the optical agent for DD(E) can have a value less than about 10 μM (e.g., 0.1 μM to 10 μM). In one embodiment, the dissociation constant value is less than about 5 μM. In another embodiment, the dissociation constant value is less than about 1 μM. The dissociation constant also may have a value less than about 0.3 μM (e.g., 0.2 μM).\nIn the methods of the present invention, the optical agent forms a fibrin-optical agent complex at the site of the lesion. The ability of the optical agent to form a fibrin-optical agent complex may be measured by examining the optical agent's dissociation constant (Kd) for a DD(E) fragment of fibrin as discussed above.", "key": {"[1]": {"settings": "24° C., read-out: Kd (μM) vs. DD(E) @ 24° C."}}, "note": "Where two headings read alike, the source gives them in different places. Starred links: 1 amine or outer side, 2 acyl side, 3 side chain; linkers in the order of their positions; H or OH if unused. Positions of bridges follow the written chain, without caps; N, C: chain ends. Non-standard residues stand in square brackets, D forms with d. Residues, ends and D or L forms follow the SMILES beside them. Groups on a side chain read outwards from the residue. ξ: configuration not given here. *: point of attachment. NH(Fluorescein-5-yl) = O=C1OC2(c3ccc(O)cc3Oc3cc(O)ccc32)c2ccc(N*)cc21; Tyr(3-I) = N[C@@H](Cc1ccc(O)c(I)c1)C(=O)O; Mca = COc1ccc2c(CC(=O)*)cc(=O)oc2c1; Hyp = O=C(O)[C@@H]1C[C@@H](O)CN1; Ile(3ξ) = CCC(C)[C@H](N)C(=O)O; CO = O=C([*:1])[*:2]; Ahx = NCCCCCC(=O)O; βAla = NCCC(=O)O", "data": [{"molecule": "CC[C@H](C)[C@H](NC(=O)[C@H](Cc1c[nH]cn1)NC(=O)[C@@H]1CSSC[C@H](NC(=O)[C@H](Cc2c[nH]cn2)NC(=O)[C@H](Cc2ccccc2)NC(=O)CNC(=O)CCCCCNC(=O)Nc2ccc3c(c2)C(=O)OC32c3ccc(O)cc3Oc3cc(O)ccc32)C(=O)N2C[C@H](O)C[C@H]2C(=O)N[C@@H](Cc2ccc(O)c(I)c2)C(=O)N[C@@H](CC(=O)O)C(=O)N[C@@H](CC(C)C)C(=O)N1)C(=O)N[C@@H](CC(C)C)C(N)=O", "note": "[Structure III] ({NH(Fluorescein-5-yl)-CO-Ahx}-GFHC[Hyp][Tyr(3-I)]DLCHIL-NH2; disulfide 4-9)", "values": [{"measurement": "Kd", "setting": "[1]", "value": 0.1, "unit": "µM"}]}, {"molecule": "CC[C@H](C)[C@H](NC(=O)[C@H](Cc1c[nH]cn1)NC(=O)[C@@H]1CSSC[C@H](NC(=O)[C@H](Cc2c[nH]cn2)NC(=O)[C@H](Cc2ccccc2)NC(=O)CCCCCNC(=O)Nc2ccc3c(c2)C(=O)OC32c3ccc(O)cc3Oc3cc(O)ccc32)C(=O)N2C[C@H](O)C[C@H]2C(=O)N[C@@H](Cc2ccc(O)c(I)c2)C(=O)N[C@@H](CC(=O)O)C(=O)N[C@@H](CC(C)C)C(=O)N1)C(=O)N[C@@H](CC(C)C)C(N)=O", "note": "[Structure II] ({NH(Fluorescein-5-yl)-CO-Ahx}-FHC[Hyp][Tyr(3-I)]DLCHIL-NH2; disulfide 3-8)", "values": [{"measurement": "Kd", "setting": "[1]", "value": 0.1, "unit": "µM"}]}, {"molecule": "CC[C@H](C)[C@H](NC(=O)[C@H](Cc1c[nH]cn1)NC(=O)[C@@H]1CSSC[C@H](NC(=O)[C@H](Cc2c[nH]cn2)NC(=O)[C@H](Cc2ccccc2)NC(=O)[C@H](Cc2c[nH]c3ccccc23)NC(=O)CCCCCNC(=O)Nc2ccc3c(c2)C(=O)OC32c3ccc(O)cc3Oc3cc(O)ccc32)C(=O)N2C[C@H](O)C[C@H]2C(=O)N[C@@H](Cc2ccc(O)c(I)c2)C(=O)N[C@@H](CC(=O)O)C(=O)N[C@@H](CC(C)C)C(=O)N1)C(=O)N[C@@H](CC(C)C)C(N)=O", "note": "[Structure IV] ({NH(Fluorescein-5-yl)-CO-Ahx}-WFHC[Hyp][Tyr(3-I)]DLCHIL-NH2; disulfide 4-9)", "values": [{"measurement": "Kd", "setting": "[1]", "value": 0.06, "unit": "µM"}]}, {"molecule": "CC[C@H](C)[C@H](NC(=O)[C@H](Cc1c[nH]cn1)NC(=O)[C@@H]1CSSC[C@H](NC(=O)[C@H](Cc2c[nH]cn2)NC(=O)[C@H](Cc2ccccc2)NC(=O)CNC(=O)CNC(=O)[C@@H](N)CCCCNC(=O)Nc2ccc3c(c2)C(=O)OC32c3ccc(O)cc3Oc3cc(O)ccc32)C(=O)N2C[C@H](O)C[C@H]2C(=O)N[C@@H](Cc2ccc(O)c(I)c2)C(=O)N[C@@H](CC(=O)O)C(=O)N[C@@H](CC(C)C)C(=O)N1)C(=O)N[C@@H](CC(C)C)C(N)=O", "note": "[Structure IX] (H-K([CO-NH(Fluorescein-5-yl)])GGFHC[Hyp][Tyr(3-I)]DLCHIL-NH2; disulfide 6-11)", "values": [{"measurement": "Kd", "setting": "[1]", "value": 0.1, "unit": "µM"}]}, {"molecule": "CC[C@H](C)[C@H](NC(=O)[C@H](Cc1c[nH]cn1)NC(=O)[C@@H]1CSSC[C@H](NC(=O)[C@H](Cc2c[nH]cn2)NC(=O)[C@H](Cc2ccccc2)NC(=O)CCNC(=O)Nc2ccc3c(c2)C(=O)OC32c3ccc(O)cc3Oc3cc(O)ccc32)C(=O)N2C[C@H](O)C[C@H]2C(=O)N[C@@H](Cc2ccc(O)c(I)c2)C(=O)N[C@@H](CC(=O)O)C(=O)N[C@@H](CC(C)C)C(=O)N1)C(=O)N[C@@H](CC(C)C)C(N)=O", "note": "[Structure I] ({NH(Fluorescein-5-yl)-CO-βAla}-FHC[Hyp][Tyr(3-I)]DLCHIL-NH2; disulfide 3-8)", "values": [{"measurement": "Kd", "setting": "[1]", "value": 0.1, "unit": "µM"}]}, {"molecule": "CC[C@H](C)[C@H](NC(=O)[C@H](Cc1c[nH]cn1)NC(=O)[C@@H]1CSSC[C@H](NC(=O)[C@H](Cc2c[nH]cn2)NC(=O)[C@H](Cc2ccccc2)NC(=O)CNC(=O)CNC(=O)CCCCCNC(=O)Nc2ccc3c(c2)C(=O)OC32c3ccc(O)cc3Oc3cc(O)ccc32)C(=O)N2C[C@H](O)C[C@H]2C(=O)N[C@@H](Cc2ccc(O)c(I)c2)C(=O)N[C@@H](CC(=O)O)C(=O)N[C@@H](CC(C)C)C(=O)N1)C(=O)N[C@@H](CC(C)C)C(N)=O", "note": "[Structure V] ({NH(Fluorescein-5-yl)-CO-Ahx}-GGFHC[Hyp][Tyr(3-I)]DLCHIL-NH2; disulfide 5-10)", "values": [{"measurement": "Kd", "setting": "[1]", "value": 0.09, "unit": "µM"}]}, {"molecule": "CCC(C)[C@H](NC(=O)[C@H](Cc1c[nH]c2ccccc12)NC(=O)[C@@H]1CSSC[C@H](NC(=O)[C@H](CCC(=O)O)NC(=O)[C@H](Cc2c[nH]c3ccccc23)NC(=O)[C@@H](CCC(N)=O)NC(=O)CCCCCNC(=O)Cc2cc(=O)oc3cc(OC)ccc23)C(=O)N2CCC[C@H]2C(=O)N[C@@H](Cc2ccc(O)cc2)C(=O)NCC(=O)N[C@@H](CC(C)C)C(=O)N1)C(=O)N[C@@H](CCC(N)=O)C(N)=O", "note": "(some centres unmarked) [Structure XIII] ({Mca-Ahx}-[dQ]WECPYGLCW[Ile(3ξ)]Q-NH2; disulfide 4-9)", "values": [{"measurement": "Kd", "setting": "read-out: Kd vs. DD(E)", "value": 0.2, "unit": "µM"}]}, {"molecule": "COc1ccc2c(CC(=O)NCCCCCC(=O)N[C@@H](CC(C)C)C(=O)N3CCC[C@H]3C(=O)N[C@H]3CSSC[C@@H](C(=O)N[C@@H](CC(C)C)C(=O)N[C@@H](CC(=O)O)C(N)=O)NC(=O)[C@H](C(C)O)NC(=O)CNC(=O)[C@H](Cc4ccc(O)cc4)NC(=O)[C@H](Cc4ccc(O)cc4)NC(=O)[C@H](CC(=O)O)NC3=O)cc(=O)oc2c1", "note": "(some centres unmarked) [Structure XII]", "values": [{"measurement": "Kd", "setting": "read-out: Kd vs. DD(E)", "value": 6.6, "unit": "µM"}]}]}
